# In article PMC11242892, “Ceanothanes Derivatives as Peripheric Anionic Site and Catalytic Active Site Inhibitors of Acetylcholinesterase: Insights for Future Drug Design” (International Journal of Molecular Sciences, 2024):
# “And” between values parts separate entries of the source, which are not always exact repeats. Identical values can stand only once. “Also recorded” adds a separate entry of the source.
# Tests used:
# [1] = molecular target: T1, acetylcholinesterase (AChE from Electrophorus electricus) (Electrophorus electricus, UniProt O42275); assay: Ellman assay, AChE inhibitory activity; type: biochemical; details: IC50 ± SEM, Ellman's assay
# T1 construct: purchased Sigma-Aldrich
# Experimental: The Ellman assay was used to test acetylcholinesterase (AChE from Electrophorus electricus) inhibition activity. A mixture of the DTNB (125 µL), enzyme solution (25 µL), and compound solution (25 µL) was prepared and incubated at room temperature for 20 min. All the assays were under 0.1 M KH2PO4/K2HPO4 buffer, pH 8.0. The substrate was added to start the enzymatic reaction. […] All measurements were performed fivefold as triplicate. The compounds were assayed in a dilution interval of 15 to 500 µg/mL.
# PAS of EeAChE = molecular target: T2, PAS of EeAChE (Electrophorus electricus, UniProt O42275); assay: Propidium iodide displacement assay; type: binding; details: five units EeAChE, 1 µM propidium iodide solution, triplicate
# T2 construct: purchased Sigma-Aldrich
# Experimental: By interacting with soluble β-amyloid peptides and facilitating their aggregation, the AChE peripheral anionic site (PAS) at the gorge’s edge contributes to AChE’s pro-aggregation capacity toward β-amyloid. […] The potential ability of compounds to bind PAS and thus block the pro-aggregation activity of AChE is possible to evaluate through competitive propidium displacement from the PAS of AChE.
# The percentage inhibition was calculated by the following expression: 100 − (IFi/IF0 × 100), where IF1 and IF0 correspond to fluorescence intensities with and without the test compound, respectively. Each assay was carried out in triplicate independent experiments.
# [2] = molecular target: T1, acetylcholinesterase (AChE from Electrophorus electricus); assay: Kinetic characterization of AChE inhibition (Lineweaver–Burk); type: biochemical; details: for Vmax: Lineweaver–Burk; for α: alpha calculated from Lineweaver–Burk plots; for type of inhibition: from Lineweaver–Burk plots and alpha
# Experimental: To investigate the inhibition mechanism of the tested compounds on AChE, a kinetic analysis was performed. The experiments were carried out using a combination of four substrate concentrations and three inhibitor concentrations with the aim to obtain a double reciprocal plot (Lineweaver–Burk), in which each point is the mean of three different experiments. A parallel control with no inhibitor in the mixture allowed adjusted activities to be measured at various times.
# T2 sequence (O42275 24-633): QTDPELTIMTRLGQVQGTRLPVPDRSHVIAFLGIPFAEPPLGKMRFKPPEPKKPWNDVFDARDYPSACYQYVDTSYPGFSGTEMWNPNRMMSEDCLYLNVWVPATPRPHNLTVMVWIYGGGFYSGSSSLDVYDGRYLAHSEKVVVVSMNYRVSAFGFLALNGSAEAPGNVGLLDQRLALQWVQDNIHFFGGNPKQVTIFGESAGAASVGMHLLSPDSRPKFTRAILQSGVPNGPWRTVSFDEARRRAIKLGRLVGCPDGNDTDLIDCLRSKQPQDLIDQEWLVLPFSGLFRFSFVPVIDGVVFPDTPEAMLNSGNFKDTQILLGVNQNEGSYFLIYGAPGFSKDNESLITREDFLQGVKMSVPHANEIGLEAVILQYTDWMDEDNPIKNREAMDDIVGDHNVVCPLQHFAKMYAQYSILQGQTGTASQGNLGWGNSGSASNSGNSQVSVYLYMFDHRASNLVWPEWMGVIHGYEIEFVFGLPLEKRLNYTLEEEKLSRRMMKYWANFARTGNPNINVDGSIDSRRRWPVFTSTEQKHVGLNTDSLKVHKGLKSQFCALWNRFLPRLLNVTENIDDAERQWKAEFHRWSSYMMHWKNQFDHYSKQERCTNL
# T1 sequence (O42275 24-633): as above
Compound,"IC50 ([1]; pH 8.0, average of triplicate)","IC50 ([1]; pH 8.0, triplicate)",% Displacement of Propidium Iodide (Mean ± SEM) (PAS of EeAChE),Vmax [2],α [2],type of inhibition [2]
"C=C(C)[C@@H]1CC[C@]2(C(=O)O)CC[C@]3(C)[C@H](CC[C@@H]4[C@@]5(C)[C@@H](C(=O)O)[C@H](O)C(C)(C)[C@@H]5CC[C@]43C)[C@@H]12 [Compound 1, Ceanothic acid]",47.4 µM and 47 µM,47.4 µM,24.24 ± 0.32%,,,
"C=C(C)[C@@H]1CC[C@]2(C(=O)O)CC[C@]3(C)[C@H](CC[C@@H]4[C@@]5(C)[C@@H](C(=O)O)C(=O)C(C)(C)[C@@H]5CC[C@]43C)[C@@H]12 [Compound 2, 3-oxo-Ceanothic Acid]",5.28 µM and 5.3 µM,5.28 µM,28.71 ± 0.99%,0.0032,1.01,noncompetitive inhibitors
"C=C(C)[C@@H]1CC[C@]2(C(=O)OC)CC[C@]3(C)[C@H](CC[C@@H]4[C@@]5(C)[C@@H](C(=O)OC)[C@H](O)C(C)(C)[C@@H]5CC[C@]43C)[C@@H]12 [Compound 3, Ceanothic 2, 28-Dimethyl Ester]",14.4 µM and 14 µM,14.4 µM,27.01 ± 0.59%,0.0133,2.98,mixed inhibitors
"C=C(C)[C@@H]1CC[C@]2(C(=O)O)CC[C@]3(C)[C@H](CC[C@@H]4[C@@]5(C)[C@@H](C(=O)O)[C@H](OCCCCBr)C(C)(C)[C@@H]5CC[C@]43C)[C@@H]12 [Compound 6, 3-(4-Bromobutoxy)-ceanothic Acid]",8.4 µM and 8 µM,8.4 µM,31.51 ± 1.38%,0.0086,0.98,noncompetitive inhibitors
"C=C(C)[C@@H]1CC[C@]2(C(=O)O)CC[C@]3(C)[C@H](CC[C@@H]4[C@@]5(C)[C@@H](C(=O)O)[C@H](OC(=O)c6ccco6)C(C)(C)[C@@H]5CC[C@]43C)[C@@H]12 [Compound 7, 3-O-Furoyl-ceanothic Acid]",17.9 µM and 18 µM,17.9 µM,28.50 ± 2.55%,0.0205,10.39,mixed inhibitors; also recorded: mixed-competitive-type inhibitor
